Like-named read-outs stand apart in the source and are kept apart here. Bridge positions count the residues as written; N and C are the ends. Square brackets hold non-standard residues; d marks the D form. Peptide text beside a SMILES is read from it. dPhe(4-F) = N[C@H](Cc1ccc(F)cc1)C(=O)O; Pen = CC(C)(S)[C@H](N)C(=O)O; hCys = N[C@@H](CCS)C(=O)O
How the values were obtained:
Assay type in all cases: cell-based
[1] = target: MC1R (Homo sapiens, UniProt Q01726); test: cAMP assay (β-galactosidase reporter, cAMP Hunter), MC1R; conditions: for Ratios of EC50 values MC ¼: EC50(MC1R)/EC50(MC4R)
Sequence of MC1R (Q01726 whole entry): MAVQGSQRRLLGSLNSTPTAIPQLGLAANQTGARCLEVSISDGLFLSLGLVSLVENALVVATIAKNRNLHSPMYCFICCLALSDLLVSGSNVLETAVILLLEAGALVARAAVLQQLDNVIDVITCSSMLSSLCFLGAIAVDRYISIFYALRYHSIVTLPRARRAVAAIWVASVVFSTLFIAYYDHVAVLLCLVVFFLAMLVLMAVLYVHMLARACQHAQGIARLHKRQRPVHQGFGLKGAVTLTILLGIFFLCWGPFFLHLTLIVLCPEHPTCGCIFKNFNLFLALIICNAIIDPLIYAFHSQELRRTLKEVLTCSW
Source text: (§1) cAMP Accumulation Measurement Via a β-Galactosidase (β-Gal) Reporter System
(§2) A chemiluminescence readout system that uses an enzyme fragment complementation (EFC) system with β-galactosidase (β-Gal) as the functional reporter system was used. This assay system for various melanocortin receptor systems is commercially available (cAMP Hunter GPCR assay system, Discoverx Corp, Fremont, Calif.). This assay utilizes the β-Gal enzyme that is split into two complementary portions; EA for Enzyme Acceptor and ED for Enzyme Donor. In the assay, the ED portion fused to cAMP is made to compete with cAMP generated by cells for binding to a cAMP-specific antibody. The EA is then added to form active β-Gal with any unbound ED-cAMP.
(§3) Briefly, 10000 cells per well are plated overnight and each well (cells incubated with 10 μl assay buffer) is then incubated with 4× serial concentration of the test compound in the cell assay buffer (5 μL) and cAMP antibody reagent (5 μL) for 30 min at 37° C. The cell lysis buffer (20 μL) containing ED-cAMP coupled enzyme fragment and the reporter substrate (Emerald II-Galacton Star, 5:1) is then added and incubated for 60 min at room temperature. Next, 20 μL of EA β-Gal fragment reagent is added.

[2] = target: MC3R (Homo sapiens, UniProt P41968); test: cAMP assay (β-galactosidase reporter, cAMP Hunter), MC3R; conditions: for Ratios of EC50 values MC ¾: EC50(MC3R)/EC50(MC4R)
Sequence of MC3R (P41968 whole entry): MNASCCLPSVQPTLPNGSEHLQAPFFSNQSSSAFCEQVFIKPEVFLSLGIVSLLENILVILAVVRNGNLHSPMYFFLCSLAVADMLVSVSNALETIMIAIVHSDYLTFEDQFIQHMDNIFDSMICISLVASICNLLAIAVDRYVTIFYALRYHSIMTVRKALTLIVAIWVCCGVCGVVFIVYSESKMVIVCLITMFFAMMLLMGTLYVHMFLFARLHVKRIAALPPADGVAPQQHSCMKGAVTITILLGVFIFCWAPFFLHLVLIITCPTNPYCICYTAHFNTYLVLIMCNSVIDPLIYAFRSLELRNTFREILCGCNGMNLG
Source text: as §1, §2, §3

[3] = target: MC4R (Homo sapiens, UniProt P32245); test: cAMP assay (β-galactosidase reporter, cAMP Hunter), MC4R
Sequence of MC4R (P32245 whole entry): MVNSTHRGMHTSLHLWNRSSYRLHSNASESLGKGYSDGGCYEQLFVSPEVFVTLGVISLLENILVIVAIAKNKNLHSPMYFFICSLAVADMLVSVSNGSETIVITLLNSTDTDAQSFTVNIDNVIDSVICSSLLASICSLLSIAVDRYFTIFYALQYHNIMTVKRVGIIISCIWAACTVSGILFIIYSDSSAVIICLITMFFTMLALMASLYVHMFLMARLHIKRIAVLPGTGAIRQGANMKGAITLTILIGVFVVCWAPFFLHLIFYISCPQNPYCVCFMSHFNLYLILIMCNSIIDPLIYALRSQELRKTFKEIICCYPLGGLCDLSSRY
Source text: as §1, §2, §3

[4] = target: MC5R (Homo sapiens, UniProt P33032); test: cAMP assay (β-galactosidase reporter, cAMP Hunter), MC5R; conditions: for Ratios of EC50 values MC 5/4: EC50(MC5R)/EC50(MC4R)
Sequence of MC5R (P33032 whole entry): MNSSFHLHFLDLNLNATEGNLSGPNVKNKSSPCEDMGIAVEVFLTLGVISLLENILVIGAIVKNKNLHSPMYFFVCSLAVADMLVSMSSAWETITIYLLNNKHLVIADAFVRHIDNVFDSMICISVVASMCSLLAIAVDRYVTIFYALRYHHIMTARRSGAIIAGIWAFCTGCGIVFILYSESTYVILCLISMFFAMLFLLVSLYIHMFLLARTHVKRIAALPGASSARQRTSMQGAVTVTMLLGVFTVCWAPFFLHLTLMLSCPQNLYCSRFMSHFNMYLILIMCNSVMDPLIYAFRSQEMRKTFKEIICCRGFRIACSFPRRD
Source text: as §1, §2, §3

[5] = agonist cAMP stimulation, read-out: cAMP Assay (EC-50) MC1R
[6] = agonist cAMP stimulation, read-out: cAMP Assay (EC-50) MC4R
[7] = agonist cAMP stimulation, read-out: cAMP Assay (EC-50) MC5R
[8] = agonist cAMP stimulation, read-out: cAMP Assay (EC-50) MC3R

Row | SMILES | Ratios of EC50 values MC ¼ [1] | EC50 [1, 5] | Ratios of EC50 values MC ¾ [2] | EC50 ([2]; agonist cAMP stimulation, in uM, read-out: cAMP Assay (EC-50) MC3R) | EC50 [3, 6] | Ratios of EC50 values MC 5/4 [4] | EC50 [4, 7] | EC50 [2, 8] | EC50 [1] | EC50 [2] | EC50 [3] | EC50 [4]
1 | CC(=O)N[C@@H](CCCNC(=N)N)C(=O)N[C@H]1CSSC[C@@H](C(N)=O)NC(=O)[C@H](Cc2c[nH]c3ccccc23)NC(=O)[C@H](CCCNC(=N)N)NC(=O)[C@@H](Cc2ccc(F)cc2)NC(=O)[C@@H]2CCCN2C(=O)[C@@H](C)NC1=O [Compound 14, Ac-Arg-cyclo[Cys-D-Ala-Pro-D-Phe(p-F)-Arg-Trp-Cys]-NH2] (Ac-RC[dA]P[dPhe(4-F)]RWC-NH2; disulfide 2-8) | 7 | 169 nM | >400 | > 10 µM | 24 nM | 12 | 283 nM |  |  |  |  | 
2 | CC(=O)N[C@@H](CCCNC(=N)N)C(=O)N[C@H]1CCSSC[C@@H](C(N)=O)NC(=O)[C@H](Cc2c[nH]c3ccccc23)NC(=O)[C@H](CCCNC(=N)N)NC(=O)[C@@H](Cc2ccccc2)NC(=O)[C@H](C)NC1=O [Compound 15, Ac-Arg-cyclo[hCys-Ala-D-Phe-Arg-Trp-Cys]-NH2] (Ac-R[hCys]A[dF]RWC-NH2; disulfide 2-7) | 15 | 4 nM | 3.8 |  | 0.26 nM | 161 | 42 nM | 0.001 µM |  |  |  | 
3 | CC(=O)N[C@@H](CCCNC(=N)N)C(=O)N[C@H]1CCSSC[C@@H](C(N)=O)NC(=O)[C@H](Cc2c[nH]c3ccccc23)NC(=O)[C@H](CCCNC(=N)N)NC(=O)[C@@H](Cc2ccccc2)NC(=O)[C@@H](C)NC1=O [Compound 16, Ac-Arg-cyclo[hCys-D-Ala-D-Phe-Arg-Trp-Cys]-NH2] (Ac-R[hCys][dA][dF]RWC-NH2; disulfide 2-7) | 120 | 888 nM | 420 |  | 7.5 nM | >1338 | > 10000 nM | 3.16 µM |  |  |  | 
4 | CC(=O)N[C@@H](CCCNC(=N)N)C(=O)N[C@H]1CCSSC(C)(C)[C@@H](C(N)=O)NC(=O)[C@H](Cc2c[nH]c3ccccc23)NC(=O)[C@H](CCCNC(=N)N)NC(=O)[C@@H](Cc2ccccc2)NC(=O)[C@@H](C)NC1=O [Compound 17, Ac-Arg-cyclo[hCys-D-Ala-D-Phe-Arg-Trp-Pen]-NH2] (Ac-R[hCys][dA][dF]RW[Pen]-NH2; disulfide 2-7) | 15 | 195 nM | 17 |  | 13.7 nM | 159 | 2180 nM | 0.233 µM |  |  |  | 
5 | CC(=O)N[C@@H](CCC(=O)O)C(=O)N[C@H]1CSSC[C@@H](C(N)=O)NC(=O)[C@H](Cc2c[nH]c3ccccc23)NC(=O)[C@H](CCCNC(=N)N)NC(=O)[C@@H](Cc2ccccc2)NC(=O)[C@H](Cc2c[nH]cn2)NC(=O)[C@H](C)NC1=O [Compound 22, Ac-Glu-cyclo[Cys-Ala-His-D-Phe-Arg-Trp-Cys]-NH2] (Ac-ECAH[dF]RWC-NH2; disulfide 2-8) | >3 |  | >20 |  |  | >2563 |  |  | 1.7 nM | 0.0099 µM | < 0.5 nM | 1280 nM

— patent US10196425B2, “Peptide compositions” (RHYTHM PHARMACEUTICALS, INC., priority 2013, dated 2019)
